Columns and labels:
[1] = PRO-001 (ProGem1) first-in-human phase I study, pharmacokinetics; assay type: in vivo; settings: compared with gemcitabine
Source text: PRO-001 (aka ProGem1) was a first-in-human (FIH), phase I, open label, two stage study to investigate the safety, tolerability, clinical efficacy, pharmacokinetics (PK) and pharmacodynamics (PD) of NUC-1031 given in two parallel dosing schedules in subjects with advanced solid malignancies (EudraCT Number: 2011-005232-26). Subjects had the following tumour types at study entry: colorectal cancer (7 subjects), unknown primary (3), ovarian cancer (13), breast cancer (4), pancreatic cancer (9), cholangiocarcinoma (7), uterine or endometrial cancer (3), cervix cancer (2), lung cancer (6), mesothelioma (3) and thymus cancer (1). The study confirmed NUC-1031′s anti-tumour activity in patients with advanced progressive cancers, who have exhausted all standard therapeutic options, many of whom were resistant or refractory to prior nucleoside analogue therapy, including gemcitabine.

[2] = system: platinum sensitive recurrent ovarian cancer; settings: cited from earlier work

Row | SMILES | levels of the potentially toxic metabolite dFdU released [1] | response rate [2] [%] | median PFS ([2]; median follow-up of 17 months) [months]
1 | C[C@H](NP(=O)(OC[C@H]1O[C@@H](n2ccc(N)nc2=O)C(F)(F)[C@@H]1O)Oc1ccccc1)C(=O)OCc1ccccc1 (stereo partly drawn) [NUC-1031, 2′-Deoxy-2′,2′-difluoro-D-cytidine-5′-O-[phenyl (benzoxy-L-alaninyl)] phosphate] | lower levels | – | –
2 | N.N.O=C([O-])C1(C(=O)[O-])CCC1.[Pt+2] [carboplatin] | – | 30.9 | 5.8
